Like-named read-outs stand apart in the source and are kept apart here.
Tests used:
[1] = test system: NK cells from KIR2DS2-positive or KIR2DS2-negative donor; assay: CD107a (LAMP) degranulation of CH-L antibody positive NK cells cultured with peptide-loaded L721.174 cells; assay type: cell-based
Procedure: A. cells were incubated in the presence or absence of peptides, and then cultured with NK cells from either a KIR2DS2-positive or KIR2DS2-negative donor. The level of CD107a (LAMP) expression was measured on NK cells positive for the CH-L antibody. This antibody binds to KIR2DS2, KIR2DL2 and KIR2DL3. B. Summary data from 5 KIR2DS2-positive and 6 KIR2DS2-negative donors tested as per panel A of FIG. 2. To compare the different donors the data are normalized to 100% for the no peptide condition.
With reference to FIG. 2A, 3×10^5 L721.174 cells were incubated at 26° C. overnight in the presence or absence of peptides, and then cultured for four hours with NK cells from either a KIR2DS2-positive or KIR2DS2-negative donor. The level of CD107a (LAMP) expression was measured on NK cells positive for the CH-L antibody. This antibody binds to KIR2DS2, KIR2DL2 and KIR2DL3. […] With reference to FIG. 2B, summary data from 5 KIR2DS2-positive and 6 KIR2DS2-negative donors were tested as per panel A of FIG. 2. To compare the different donors the data are normalized to 100% for the no peptide condition.

HLA-Cw*0102 [2] = target: T1, HLA-Cw*0102 (Homo sapiens, UniProt P10321, A176E/A330V/A35S/A97T/C350S/D114A/D33F/L171W/L180R/L218V/M285V/M309V/M331V/P208H/Q277E/Q291P/R121W/R243W/R30K/S123C/S140Y/S297R/T329A/T363A/V272M/V319A); details: control peptide, stated as known; cited from earlier work
KIR2DS2 [3] = target: T2, KIR2DS2 (Homo sapiens, UniProt P43631); assay: pVav1/Vav1 Western blot, KIR2DS2-transfected NK cell line plus peptide-loaded HLA-C*0304:ICP47:721.221 cells; assay type: cell-based; design: expressed in transfected cells; host or cells: NKL cell line transfected with KIR2DS2; target cells L721.221-HLA-C*0304-ICP47; details: peptide 20 μM, 5 minutes
Procedure: FIG. 7 1×10^6 L721.221-HLA-C*0304-ICP47 cells were incubated overnight at 26° C. with indicated peptides at a concentration of 20 μM. The cells were then incubated with the NKL cell line transfected with KIR2DS2 or transfected with KIR2DL2 for 5 minutes. The cells were lysed in 1% NP-40 and then analysed by Western blotting using antibodies to pVav1 and then following stripping of the membrane to Vav1. Shown are Western blots around the 98 kDa region, and below them the corresponding densitometries for 2 independent experiments.
With reference to FIG. 7, 1×10^6 HLA-C*0304:ICP47:721.221 cells were incubated overnight at 26° C. with indicated peptides at a concentration of 20 μM. The cells were then incubated with the NK cell line transfected with KIR2DS2 for 5 minutes. The cells were lysed in 1% NP-40 and then analysed by Western blotting using antibodies to pVav1 and then following stripping of the membrane to Vav1. Shown is a Western blots around the 98kDa region, and below them the corresponding densitometries for 3 independent experiments.
Target sequence in this assay (P43631 22-304): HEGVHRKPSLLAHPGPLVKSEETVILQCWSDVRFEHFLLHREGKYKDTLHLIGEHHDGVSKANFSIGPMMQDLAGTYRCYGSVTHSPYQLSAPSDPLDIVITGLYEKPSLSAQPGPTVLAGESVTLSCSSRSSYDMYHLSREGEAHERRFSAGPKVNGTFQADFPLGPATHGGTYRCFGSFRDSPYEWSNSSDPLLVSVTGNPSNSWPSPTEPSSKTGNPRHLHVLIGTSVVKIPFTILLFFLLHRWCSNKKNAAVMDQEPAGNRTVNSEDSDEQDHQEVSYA

HLA-Cw*0102 [4] = target: T1, HLA-Cw*0102; assay: Peptide binding to HLA-Cw*0102: cell surface MHC class I staining of L721.174 cells by flow cytometry; assay type: cell-based; details: increasing peptide concentrations, overnight at 26° C.
Procedure: (§1) The HLA-Cw*0102-positive cell line L721.174 was incubated with increasing concentrations of the LNPSVAATL (SEQ ID NO: 1) peptide or a control peptide VAPWNSLSL (SEQ ID NO: 48). Cells were stained for cell surface of MHC class I and analysed by flow cytometry. The mean fluorescence intensity of cell surface MHC Class I was plotted against the peptide concentration.
as §1, with “With reference to FIG. 1, the HLA-Cw*0102-positive” for “The HLA-Cw*0102-positive”, “NO: 48) (known to bind HLA-Cw*0102) overnight at 26° C. 3×10^5 cells were used per condition. Following washing in PBS the cells” for “NO: 48). Cells”

L721.174 cells = assay: Cytotoxicity of NK cell clones against peptide-loaded L721.174 cells (Live/Dead fixable far-red stain); assay type: cell-based; details: KIR2DS2-positive NK cell clones 4, 6, 9 only; not KIR2DS2-negative clone 27
Procedure: (§2) L721.174 cells were incubated in the presence or absence of the peptides VAPWNSFAL (SEQ ID NO: 49) and the LNPSVAATL (SEQ ID NO: 1). The cells were then labeled with the cell tracker orange dye, and then cultured with KIR2DS2-positive NK cell clones (clones 4,6,9) or a KIR2DS2-negative NK cell clone (clone 27). Cytotoxicity was then determined using Live/Dead® fixable far-red stain.
as §2, with “With reference to FIG. 3, 3×10^5 L721.174” for “L721.174”, “incubated at 26° C. overnight” for “incubated”, “cultured for four hours” for “cultured”

DAP12 = DAP12 phosphorylation: KIR2DS2 immunoprecipitation and phosphotyrosine Western blot, NK cell line transfected with KIR2DS2 plus peptide-loaded L721.174 cells; assay type: cell-based; details: peptide 20 μM, 5 minutes
Procedure: (§3) FIG. 6 LNPSVAATL (SEQ ID NO: 1) activates NK cells expressing KIR2DS2. A. L721.174 cells were incubated with indicated peptides. The cells were then incubated with the NK cell line transfected with KIR2DS2. The cells were lysed and the KIR2DS2 was then immunoprecipitated from the mixture using the GL183 antibody coupled to protein-G beads. The immune precipitate was analysed by Western blotting using a phosphotyrosine antibody. The membrane was then stripped and reprobed with an antibody to DAP12 the molecule that transduces a positive signal from KIR2DS2. Shown are the regions on the blots at the level of DAP12 (12-15kDa). B. L721.174 cells were incubated with indicated peptides. The cells were then incubated with the NK cell line transfected with KIR2DS2 or transfected with KIR2DL2. The cells were lysed in 1% NP-40 and then analysed by Western blotting using antibodies to pVav1 and then following stripping of the membrane to Vav1. […]
(§4) With reference to FIG. 6A, 1×10^6 L721.174 cells were incubated overnight at 26° C. with indicated peptides at a concentration of 20 μM. […] The immune precipitate was analysed by Western blotting using a phosphotyrosine antibody. […] The cells were lysed in 1% NP-40 and then analysed by Western blotting using antibodies to pVav1 and then following stripping of the membrane to Vav1. […]

[5] = test system: NK cells expressing KIR2DS2; assay: pVav1/Vav1 Western blot, NK cell line transfected with KIR2DS2 or KIR2DL2 plus peptide-loaded L721.174 cells; assay type: cell-based; details: peptide 20 μM, 5 minutes
Procedure: as §3, §4

HLA-C*0102 = HLA-C*0102 (Homo sapiens, UniProt P10321, A176E/A330V/A35S/A97T/C350S/D114A/D33F/L171W/L180R/L218V/M285V/M309V/M331V/P208H/Q277E/Q291P/R121W/R243W/R30K/S123C/S140Y/S297R/T329A/T363A/V272M/V319A); assay: HPLC of HLA-C binding peptides eluted from 721.221 cells expressing HLA-C*0102:T2A:E19/3K:LNPSVAATL; details: peak in the eluate at the retention time of the control peptide
Procedure: FIG. 8 The MHC class I-negative 721.221 cell line was transfected with a construct expressing HLA-C*0102:T2A:E19/3K:LNPSVAATL (SEQ ID NO: 1). The cells were washed and then the HLA-C binding peptides eluted using 10% acetic acid. The eluate was analysed by HPLC using a C18 column and a 4-60% acetonitrile gradient. The resulting profile was compared to the profile of the LNPSVAATL (SEQ ID NO: 1) peptide alone. The peptide elution peak is indicated with an arrow.
The cell line 721.221 expressing HLA-C*0102:T2A:E19/3K:LNPSVAATL. Following elution of the HLA-C binding peptides using 10% acetic acid the peptides were analysed by HPLC using a C18 column and an acetonitrile gradient.

KIR2DS2 [6] = target: T2, KIR2DS2; assay: KIR2DS2-PE tetramer staining of peptide-loaded L721.174 cells by flow cytometry; assay type: binding; design: made in house; details: peptide 200 μM overnight at 26° C.
Procedure: (SEQ ID NO: 1) peptide. A. The KIR2DS2 protein was expressed with a biotinylation C-terminal tag. Following biotinylation with the BirA enzyme, the KIR2DS2 protein was incubated with streptavidin-phycoerythrin to form fluorescent KIR2DS2-tetramers (KIR2DS2-PE). L721.174 cells were then incubated with indicated peptides. Cells were then stained with KIR2DS2-PE and analysed by flow cytometry. Shown are histogram plots. The bold numbers represent the mean fluorescent staining intensity of the KIR2DS2-PE staining of the cells in the presence of peptide and the non-bold numbers the staining in the absence of peptide. B. Represents the mean and standard error fluorescent intensities of the experiment in “A” following replicate experiments.
A. L721.174 cells were incubated with indicated peptides. Cells were then stained with KIR2DS2-PE (see FIG. 4) and analysed by flow cytometry. Shown are histogram plots. […]
With reference to FIG. 4A, the KIR2DS2 protein was expressed as a recombinant protein with a biotinylation C-terminal tag. […] Cells were then stained with KIR2DS2-PE and analysed by flow cytometry. […]
With reference to FIG. 5A, 3×10^5 L721.174 cells were incubated overnight at 26° C. with indicated peptides at a concentration of 200 μM. Cells were then stained with KIR2DS2-PE (see FIG. 4) and analysed by flow cytometry. […]
Target sequence in this assay (P43631 22-245 limits assumed): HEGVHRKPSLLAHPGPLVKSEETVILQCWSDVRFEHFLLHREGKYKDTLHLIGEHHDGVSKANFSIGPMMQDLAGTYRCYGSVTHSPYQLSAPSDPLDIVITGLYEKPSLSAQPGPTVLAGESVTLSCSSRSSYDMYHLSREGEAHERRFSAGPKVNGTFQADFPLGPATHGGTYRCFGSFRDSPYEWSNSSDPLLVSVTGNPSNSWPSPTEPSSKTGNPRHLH

In the case of “VAPWNSFAL (listed as Homo sapiens) [reference compound]”, the “level of CD107a degranulation as compared to no peptide” value ([1]; NK cells from both donors (KIR2DS2-positive and KIR2DS2-negative)) is reported as “lower levels of degranulation”.

In the case of VAPWNSLSL (listed as Homo sapiens), the “binding to HLA-Cw*0102” value (HLA-Cw*0102 [2]) is listed as “known to bind”.

For GAVPDLAWL (listed as Homo sapiens), the “activation of KIR2DS2 (pVav1)” value (KIR2DS2 [3]) was “Activated”.

For GAVPDLATL (listed as Homo sapiens), the “activation of KIR2DS2 (pVav1)” value (KIR2DS2 [3]) was “Activated”.

In the case of LNPSVAATL (listed as Homo sapiens), the “binding to HLA-Cw*0102” value (HLA-Cw*0102 [4]) is reported as “Binds”, the “level of CD107a degranulation as compared to no peptide” value ([1]; NK cells from KIR2DS2-positive donors) is reported as “higher levels of degranulation” and the “level of CD107a degranulation as compared to the VAPWNSFAL peptide alone” value ([1]; NK cells from KIR2DS2-positive donors, LNPSVAATL in combination with VAPWNSFAL) is reported as “higher levels of degranulation”. The “killing of L721.174 cells as compared to no peptide or the VAPWNSFAL peptide” value (L721.174 cells) was “killed the L721.174 cell line to greater extent”, the “phosphorylation of DAP12” value (DAP12) was “induces phosphorylation of DAP12” and the “activation of NK cells expressing KIR2DS2” value [5] was “Activates”. For the same sequence, the “endogenous processing and presentation from construct” value (HLA-C*0102) was “endogenously processed and presented” and the “KIR2DS2 binding to HLA-C*0102 and peptide (KIR2DS2-PE staining)” value (KIR2DS2 [6]) was “Binds”.

Reference: patent US10995116B2, “Peptide-induced NK cell activation” (University of Southampton, priority 2014, dated 2021)
